# In publication PMC7340446, “Optimization of PTH/PTHrP Hybrid Peptides to Derive a Long‐Acting PTH Analog (LA‐PTH)” (JBMR Plus, 2020):
# Where no end group is shown, it is not given here.
# Assays:
# [1] = test system: thyroparathyroidectomized (TPTX) rats; assay: Repeated daily administration in TPTX rats (11‐day treatment, 12‐day study); format: in vivo, rat; conditions: daily s.c. 8.0 nmol/kg
# Experimental: TPTX rats were injected i.v. or s.c. with vehicle or vehicle containing a PTH peptide, or orally treated once daily with vehicle (medium‐chain triglyceride; Chugai Pharma Manufacturing, Tokyo, Japan) or vehicle containing alfacalcidol (Chugai Pharma Manufacturing) for 11 days. Blood samples were obtained from the tail or jugular vein immediately before and at times after injection. Urine samples at 0 to 8 hours or 8 to 24 hours, were collected in metabolic cages. sCa and uCa, serum inorganic phosphorus (sPi) and urinary phosphorus (uPi), and creatinine (uCre) were measured with an automatic analyzer (7180; Hitachi, Ltd, Chiyoda, Tokyo, Japan). Urinary deoxypyridinoline (uDpD) was measured using a Metra DPD EIA kit (DS Pharma Biomedical, Osaka, Japan), and the data were normalized to the uCre concentrations. Serum FGF23 was measured using FGF23 ELISA assay (Immunodiagnostik AG, Bensheim, Germany). Serum 1,25‐dihydroxyvitamin D [1,25(OH)2D3] levels were determined by a ELISA immunoassay (Immunodiagnostic System Ltd, Bolden, UK).
# Figure 4 Effects of 11‐day treatment (12‐day study) with M‐PTH/PTHrP or alfacalcidol on serum calcium (sCa) in thyroparathyroidectomized (TPTX) rats. TPTX rats were treated for 11 days with daily s.c. injection of either vehicle or M‐PTH/PTHrP, or with daily oral alfacalcidol at the indicated doses, and sham‐surgery control rats were s.c. injected daily with vehicle. The levels of Ca in serum and urine were assessed. Blood samples were collected from the jugular vein at 8 hours (A) and at 24 hours (B) after the last treatment administration, and assessed for total sCa. Total urine was collected in metabolic cages over the time intervals of 0 to 8 hours (C), and 8 to 24 hours (D) and assessed for total urinary Ca. Data are means ± SEM; n = 6 or 5 (2.0 and 4.0 nmol/kg of M‐PTH/PTHrP); *p < 0.05 M‐PTH/PTHrP versus TPTX‐vehicle; #p < 0.05 TPTX vehicle versus sham.
# Supplementary file JBM4-4-e10367-s001.pdf: Figure S1 PTH ligand‐induced cAMP‐signaling responses in GP‐2.3 cells Time course of the cAMP‐dependent luminescence response measured at 2‐minute intervals in the presence of each ligand at 10 nM (Ligand on‐phase) and B) Time course of the cAMP‐dependent luminescence response measured at 2‐minute intervals after washout of unbound ligand (Ligand wash‐out phase). GP‐2.3 cells preloaded with luciferin were treated with a concentration of PTH ligand at a concentration of 10 nM for 30 min, and cAMP‐dependent luminescence was measured at two‐minute intervals (ligand‐on phase). The cells were then removed from the plate reader, rinsed twice with media to remove unbound ligand, and then fresh media containing luciferin but lacking ligand was added and luminescence was assessed for additional 90 min (Ligand wash‐out phase). Data are means (± SEM) of four experiments, each performed in triplicate. Figure S2. In vivo calcemic actions of M‐PTH/PTHrP hybrid analogs in normal rats. The indicated M‐PTH/PTHrP hybrid analogs (sequences are shown in Figure 1) along with PTH(1–34) and PTHrP(1–36) controls, were administered at the indicated doses by i.v. injection, and at the indicated time points blood was collected from the tail vein and measured for ionized calcium (Ca^2+). Panels A‐C represent three separate experiments. Data are means ± SEM; n = 6 or 4 (80 nmol/kg of M‐PTH(1‐11)/PTHrP(12–36), M‐PTH(1‐14)/PTHrP(12–36), M‐PTH(1‐17)/PTHrP(18–36) and 1.25 nmol/kg of M‐PTH(1–30)/PTHrP(31–36)). *p < 0.05 versus Vehicle. Figure S3. Effects of 11 days treatment (12 days study) of M‐PTH/PTHrP on serum 1,25(OH) 2 Vitamin‐D3, urinary deoxypyridinoline (Dpd) and serum FGF23 in TPTX rats. Serum and urine samples obtained from the TPTX and sham control rats of the two‐week daily‐administration experiment shown in Figure 4 were analyzed by ELISA for the indicated markers. A) serum 1,25(OH)2Vitamin‐D3. B) urinary deoxypyridinoline (DpD)/Cre. C) serum FGF23. […]
# [2] = Pharmacokinetics in normal rats, i.v., plasma peptide by ELISA; format: in vivo, rat; conditions: i.v. 10 nmol/kg, plasma with protease inhibitors, n = 4 (M‐PTH/PTHrP) or 3 (PTH(1–34))
# Experimental: For pharmacokinetic studies, plasma samples were prepared in the presence of protease inhibitors (aprotinin, leupeptin, EDTA). Plasma levels of PTH(1–34) were assessed by ELISA assay (Human PTH(1–34) Specific ELISA Kit; Immutopics Inc, San Clemente, CA, USA), and plasma levels of M‐PTH/PTHrP were assessed by ELISA assay (PTH‐RP 1–34 Human Enzyme Immunoassay Kit; Peninsula Laboratories International, San Carlos CA, USA) using M‐PTH/PTHrP peptides as standard solutions.
# Figure 3 Pharmacodynamic and pharmacokinetic profiles of M‐PTH/PTHrP and PTH(1–34) in rats. (A) Effects of M‐PTH/PTHrP and PTH(1–34) on blood ionized Ca in TPTX rats by i.v. injection. M‐PTH/PTHrP and PTH(1–34) were injected intravenously in TPTX rats at the indicated doses, and blood samples were collected from the tail vein measured for ionized Ca; data are means ± SE; n = 5 or 3 (PTH(1–34)). *p < 0.05, **p < 0.01, ***p < 0.005 M‐PTH/PTHrP or PTH(1–34) versus TPTX‐vehicle. […] M‐PTH/PTHrP and PTH(1–34) each at a dose of 10 nmol/kg were i.v. administered, and blood samples were collected from the jugular vein in the presence of proteinase inhibitors (Aprotinin, Leupeptin, and EDTA) and the plasma samples were assessed for peptide concentration using a hPTHrP(1–34)‐targeted EIA for M‐PTH/PTHrP and an hPTH(1–34)‐targeted ELISA for PTH(1–34). […]
sequence,measurement,setting,value
"AVAEIQLMHQRAKWIQDLRRRFFLHHLIAEIHTAEI [M‐PTH(1‐14)/PTHrP(15‐36), [Ala^1,3,12,Gln^10,Arg^11,Trp^14]‐PTH(1‐14)/PTHrP(15–36)]",sCa levels,[1]; 8 hours after administration,frank hypercalcemia
same,uCa at 0 to 8 hours and uDpD at 0 to 24 hours,[1]; after the last administration,increased significantly
same,Time by which plasma concentration declined to the lowest detection level,[2],≤ 60 min
